Measurements published in US10428106B2, “Phosphate replacement mRNA cap analogs” (ModernaTX, Inc., priority 2015, dated 2019).

Columns and labels:
CD-1 mice = assay: In vivo expression assay of hEPO mRNA in MC3-based LNP; conditions: i.v. bolus 0.05 mg/kg, 6 h after injection, mRNA carrying the cap, 5-methoxy uridine
Protocol: mRNAs encoding hEPO are synthesized according to the method described in Example 2 above, co-transcriptionally incorporating cap analogs of the disclosure. […] A MC3-based lipid nanoparticle (LNP) formulation of the synthesized mRNA is produced, and is intravenously administered to CD-1 mice (n=3) at a bolus dose of 0.05 mg/kg. The level of hEPO was tested at 6 h, 24 h, or 48 h after injection.

HeLa Lysate [1] = assay: Cell free translation assay of hEPO mRNAs carrying different caps; assay type: biochemical; conditions: hEPO levels after 3 hours; mRNA carrying the cap; modRNA with 5-methoxy uridine
[2] = tested on: human primary hepatocytes; assay: Cell-based expression assay in human primary hepatocytes; conditions: normalized expression level of mRNA carrying the cap, 5-methoxy uridine; Compound 7 mRNA Cap0-like, others Cap1-like
eIF4E = molecular target: T1, eIF4E (Homo sapiens, UniProt P06730); assay: Binding affinities to eIF4E using surface plasmon resonance (SPR)
T1 construct: HNAVIpeptTEVeIF4E 32-217(Biotinylated)

HeLa Lysate [3] = assay: Cap competition assay in kinetic cell free in vitro translation (free cap analogs vs Cap1-tipped eGFP modRNA); assay type: biochemical; conditions: free cap analog 0-100 uM; modRNA with 1-methyl-pseudouridine and 5-methyl cytidine; fluorescence plateau
Protocol: The in vitro translation assay was conducted with the HeLa 1-step coupled IVT kit (ThermoFisher Scientific, Waltham, Mass.) according to the manufacturer's instructions to assess performance of new cap analogs as free compounds or as an integral part of capped mRNA. Cap analogs with affinity to eIF4E protein may reduce protein synthesis rate in cell-free translation. Further, RNAs containing such cap analogs (“Cap-modRNA”) show different potency of protein synthesis in cell-free translation.
The modified RNAs (“modRNAs”) of eGFP and mCitrine-degron, harboring chemical modifications on either the CAP structures, selected ribose units and/or the bases, were diluted in sterile nuclease-free water to a final amount of 500 ng in 5 uL. […] The in vitro translation reaction was done in a standard 96-well round bottom plate (Corning, Corning, N.Y.), covered with an self-adhesive fluorescence-compatible seal (BioRad, Hercules, Calif.) at 30° C. inside the plate reader Cytation 3 (BioTek, Winooski, Vt.).
The fluorescent signal per reaction increased over time and is considered proportional to the occurring protein synthesis. Each cell-free translation reaction was monitored for 120-180 min with the following settings: eGFP protein—ex. […] The height of the reading head was set to 1 mm above the plate and a reading speed of one per sample every 17 seconds. […]

[4] = residence time as listed in Table 5

T1 sequence (P06730 32-217): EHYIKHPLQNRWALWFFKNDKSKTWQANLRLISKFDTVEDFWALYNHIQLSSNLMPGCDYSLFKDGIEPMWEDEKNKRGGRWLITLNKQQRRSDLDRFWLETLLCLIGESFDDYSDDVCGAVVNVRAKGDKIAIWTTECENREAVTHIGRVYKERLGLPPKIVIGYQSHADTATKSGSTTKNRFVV

τ (eIF4E; [4]) [s]	Kd (eIF4E; SPR, Biacore 3000, captured biotinylated eIF4E, Table 3) [µM]	IC50 (HeLa Lysate [3]) [µM]	τ (eIF4E; residence time, inverse of koff, Table 3) [s]	Structure (SMILES)	in vivo hEPO normalized to capping and Cap1 (CD-1 mice)	CFT (norm to conc. & capping & cap1) (HeLa Lysate [1])	h-primHeps norm to Capping and Cap1 [2]
1.3				CO[C@@H]1[C@H](O)[C@@H](COP(=O)(O)OP(=O)(O)OP(=O)(O)OC[C@H]2O[C@@H]([n+]3cn(C)c4c(=O)[nH]c(N)nc43)[C@H](O)[C@@H]2O)O[C@H]1n1cnc2c(=O)[nH]c(N)nc21 [Cap1, m7GpppG(2′-Om)]	1.00	1.00	1.00
	300			C[n+]1cn([C@@H]2O[C@H](COP(=O)([O-])OCCN(CCOP(=O)([O-])OC[C@H]3O[C@@H](n4c[n+](C)c5c(=O)[nH]c(N)nc54)[C@H](O)[C@@H]3O)C(=O)OC(C)(C)C)[C@@H](O)[C@H]2O)c2nc(N)[nH]c(=O)c21 [Compound 25]			
0.6				CO[C@H]1[C@@H](O)[C@H](n2c[n+](C)c3c(=O)[nH]c(N)nc32)O[C@@H]1COP(=O)(O)OP(=O)(O)OP(=O)(O)OC[C@H]1O[C@@H](n2cnc3c(=O)[nH]c(N)nc32)[C@H](O)[C@@H]1O [ARCA]	0.70	1.93	1.52
		36	1.25	Cn1c[n+]([C@@H]2O[C@H](COP(=O)(O)OP(=O)([O-])OP(=O)(O)OC[C@H]3O[C@@H](n4cnc5c(=O)[nH]c(N)nc54)[C@H](O)[C@@H]3O)[C@@H](O)[C@H]2O)c2nc(N)[nH]c(=O)c21 [Cap0 (i.e., m7GpppG), m7GpppG]			
